Consider 20 compounds from ChEMBL document CHEMBL1201862, “PubChem BioAssay data set” (2004).

SMILES strings stand for the structures. The source made the active and inactive calls.

One data set deals with P388/ADR. As to the kind of experiment: cells. To be noted: Mus musculus. In kind it is functional.
For the next data set, the system named is SN12K1. Put plainly: cells. In kind it is functional. As to conditions: Homo sapiens.
The test system of the next data set is P388. Put plainly: cells. In kind it is functional. As to conditions: Mus musculus.
Data set [1] can be described thus: inhibitors of PGC1a acetylation in cells, dose response, cell-based, cherry-picked samples (AID 720514).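 Note: potency may reflect raised or lowered acetylation signal.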 Format: functional.
A further data set deals with Cytochrome P450 2C19 (Homo sapiens, UniProt P33261). Put plainly: Cytochrome panel assay with activity outcomes. Panel member name: p450-cyp2c19 Compounds with AC50 equal or less than 10 uM are considered active. Format: functional.
Cytochrome P450 2C19, sequence (P33261 whole entry): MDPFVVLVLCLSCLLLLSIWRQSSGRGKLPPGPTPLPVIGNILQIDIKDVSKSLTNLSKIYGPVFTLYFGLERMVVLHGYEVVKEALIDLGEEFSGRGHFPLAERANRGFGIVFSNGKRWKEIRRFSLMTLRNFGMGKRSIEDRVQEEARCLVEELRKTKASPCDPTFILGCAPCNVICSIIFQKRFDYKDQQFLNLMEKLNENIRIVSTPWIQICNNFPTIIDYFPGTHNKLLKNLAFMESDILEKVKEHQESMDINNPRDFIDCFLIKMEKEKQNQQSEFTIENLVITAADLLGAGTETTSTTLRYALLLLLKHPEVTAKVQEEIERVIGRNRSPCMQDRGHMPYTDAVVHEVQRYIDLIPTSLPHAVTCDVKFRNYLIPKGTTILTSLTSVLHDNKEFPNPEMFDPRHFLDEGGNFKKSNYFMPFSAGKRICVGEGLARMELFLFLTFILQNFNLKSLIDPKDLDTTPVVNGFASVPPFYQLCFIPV
The target of the next data set is Cytochrome P450 2D6 (Homo sapiens, UniProt P10635).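 Note: CYP2D6 member of a cytochrome P450 panel assay.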
Cytochrome P450 2D6, sequence (P10635 whole entry): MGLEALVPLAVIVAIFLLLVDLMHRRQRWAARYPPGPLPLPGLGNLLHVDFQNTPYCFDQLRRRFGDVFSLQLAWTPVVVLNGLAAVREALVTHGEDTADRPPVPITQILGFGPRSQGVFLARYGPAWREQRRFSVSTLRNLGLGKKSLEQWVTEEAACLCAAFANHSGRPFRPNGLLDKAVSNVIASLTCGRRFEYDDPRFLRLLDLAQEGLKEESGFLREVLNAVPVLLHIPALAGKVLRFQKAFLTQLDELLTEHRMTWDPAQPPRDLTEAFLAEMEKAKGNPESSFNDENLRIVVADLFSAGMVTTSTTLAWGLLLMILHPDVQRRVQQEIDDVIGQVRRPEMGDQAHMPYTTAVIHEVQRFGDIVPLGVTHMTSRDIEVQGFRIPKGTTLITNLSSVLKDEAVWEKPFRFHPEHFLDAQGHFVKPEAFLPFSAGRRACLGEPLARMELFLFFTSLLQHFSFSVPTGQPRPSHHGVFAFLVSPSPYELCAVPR
Another data set concerns the target Cytochrome P450 3A4 (Homo sapiens, UniProt P08684).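 Note: CYP3A4 tested as one member of a cytochrome P450 panel screen.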
The target of another data set is Cytochrome P450 2C9 (Homo sapiens, UniProt P11712).
Cytochrome P450 2C9, sequence (P11712 whole entry): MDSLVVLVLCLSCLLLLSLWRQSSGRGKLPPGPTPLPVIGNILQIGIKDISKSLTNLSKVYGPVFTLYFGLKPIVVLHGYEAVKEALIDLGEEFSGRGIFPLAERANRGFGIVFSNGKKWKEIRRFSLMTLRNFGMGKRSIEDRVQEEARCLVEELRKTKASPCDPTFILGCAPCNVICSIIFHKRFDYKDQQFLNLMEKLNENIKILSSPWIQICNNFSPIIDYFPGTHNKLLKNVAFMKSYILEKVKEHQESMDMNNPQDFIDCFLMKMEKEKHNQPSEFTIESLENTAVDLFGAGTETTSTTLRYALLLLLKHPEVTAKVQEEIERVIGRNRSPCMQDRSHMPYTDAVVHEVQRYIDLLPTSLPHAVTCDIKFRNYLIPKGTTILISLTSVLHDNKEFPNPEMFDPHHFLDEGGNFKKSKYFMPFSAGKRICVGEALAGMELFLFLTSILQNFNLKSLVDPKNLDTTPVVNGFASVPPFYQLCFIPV
The nature of data set [2]: cytotoxicity in HEK-293T cells, dose response, cytotoxicity control for TCR NF-kB inhibitor project, luminescence, T-cell screen hits (AID 489026).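 Note: cells exposed to compound about 14 hours before the viability readout.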 In kind it is functional, cell-based.
The target in the next data set is T1, Cytochrome P450 1A2 (Homo sapiens, UniProt P05177).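 Note: PubChem cytochrome P450 panel assay, CYP1A2 panel member.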
T1 sequence (P05177 whole entry): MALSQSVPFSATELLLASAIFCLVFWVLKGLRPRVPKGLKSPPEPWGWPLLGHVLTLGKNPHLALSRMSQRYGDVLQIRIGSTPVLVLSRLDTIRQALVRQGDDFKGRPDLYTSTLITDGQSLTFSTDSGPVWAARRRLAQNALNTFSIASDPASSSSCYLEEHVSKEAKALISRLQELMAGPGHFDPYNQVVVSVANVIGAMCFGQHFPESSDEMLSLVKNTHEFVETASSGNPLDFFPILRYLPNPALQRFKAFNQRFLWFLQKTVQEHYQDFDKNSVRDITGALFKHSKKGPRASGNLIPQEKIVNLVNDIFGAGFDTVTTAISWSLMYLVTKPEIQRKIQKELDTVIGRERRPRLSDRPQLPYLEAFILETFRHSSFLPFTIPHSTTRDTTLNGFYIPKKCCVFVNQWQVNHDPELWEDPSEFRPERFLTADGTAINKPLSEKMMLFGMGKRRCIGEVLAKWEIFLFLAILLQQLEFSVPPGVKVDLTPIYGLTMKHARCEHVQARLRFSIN

Data set [3] addresses T2, High affinity choline transporter 1 (Homo sapiens, UniProt Q9GZV3).
T2 sequence (Q9GZV3 whole entry): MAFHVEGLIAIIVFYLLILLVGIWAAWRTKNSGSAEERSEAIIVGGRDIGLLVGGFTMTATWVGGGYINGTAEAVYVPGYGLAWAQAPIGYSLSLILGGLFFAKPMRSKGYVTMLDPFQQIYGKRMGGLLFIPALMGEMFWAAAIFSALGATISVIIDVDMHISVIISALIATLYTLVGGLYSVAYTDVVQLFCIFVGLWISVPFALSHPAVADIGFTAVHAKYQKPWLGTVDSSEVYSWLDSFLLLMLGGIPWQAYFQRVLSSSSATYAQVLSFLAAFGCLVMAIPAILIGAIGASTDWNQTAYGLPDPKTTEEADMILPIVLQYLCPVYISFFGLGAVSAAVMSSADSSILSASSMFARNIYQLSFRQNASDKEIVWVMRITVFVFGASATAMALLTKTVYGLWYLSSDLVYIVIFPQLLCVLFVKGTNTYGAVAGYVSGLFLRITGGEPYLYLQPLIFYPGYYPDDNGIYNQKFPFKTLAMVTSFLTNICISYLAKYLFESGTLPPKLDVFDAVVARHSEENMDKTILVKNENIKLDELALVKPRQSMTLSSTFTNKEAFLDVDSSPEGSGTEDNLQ
As to the kind of experiment: CHT inhibitors, dose response, cell-based, 5-point CRC, membrane potential dye (AID 504840). Format: functional.

Data set [4] is described as follows: growth suppression of PTEN-null colon cells, dose response, cell-based, HCT116 PTEN knockout (AID 1047).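 Note: HCT116 colon tumor cells with PTEN knocked out; cells exposed to compound for 60 hours before readout; potency for loss of cell viability measured by luminescence.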 In kind it is functional.
Data set [5] in a line: growth suppression of beta-catenin-knockout colon cells, dose response, cell-based, HCT116, human colon tumor (AID 1045).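 Note: HCT116 colon tumor cells with beta catenin knocked out; cells exposed to compound for 60 hours.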 Format: functional.
Data set [6] addresses T3, Replicative DNA helicase DnaB (Mycobacterium tuberculosis, UniProt P9WMR3).
T3 sequence (P9WMR3 whole entry): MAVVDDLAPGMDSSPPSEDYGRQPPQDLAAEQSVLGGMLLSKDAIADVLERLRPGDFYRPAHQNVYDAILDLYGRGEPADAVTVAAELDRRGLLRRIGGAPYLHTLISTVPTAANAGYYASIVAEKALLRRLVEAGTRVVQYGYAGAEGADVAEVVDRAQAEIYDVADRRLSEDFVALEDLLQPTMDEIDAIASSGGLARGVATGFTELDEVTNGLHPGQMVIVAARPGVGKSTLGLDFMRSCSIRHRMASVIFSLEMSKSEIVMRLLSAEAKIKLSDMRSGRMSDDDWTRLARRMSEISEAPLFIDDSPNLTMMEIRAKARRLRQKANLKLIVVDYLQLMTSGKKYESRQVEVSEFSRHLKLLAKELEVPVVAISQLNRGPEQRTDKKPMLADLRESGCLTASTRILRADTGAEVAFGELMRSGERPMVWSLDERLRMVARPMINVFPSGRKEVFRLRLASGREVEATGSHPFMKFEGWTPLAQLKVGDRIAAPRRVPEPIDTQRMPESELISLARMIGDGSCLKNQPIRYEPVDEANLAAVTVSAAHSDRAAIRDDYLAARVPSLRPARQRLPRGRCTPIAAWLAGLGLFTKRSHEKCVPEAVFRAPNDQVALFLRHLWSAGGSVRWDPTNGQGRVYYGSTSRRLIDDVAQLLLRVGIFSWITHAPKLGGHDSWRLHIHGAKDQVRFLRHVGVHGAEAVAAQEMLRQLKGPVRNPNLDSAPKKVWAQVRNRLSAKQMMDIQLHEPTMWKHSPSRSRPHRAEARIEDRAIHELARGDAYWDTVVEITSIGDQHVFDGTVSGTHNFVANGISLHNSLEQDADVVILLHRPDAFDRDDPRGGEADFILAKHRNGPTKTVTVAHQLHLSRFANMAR
Put plainly: DnaB intein splicing inhibitors, dose response, biochemical, cell-free fluorescence (AID 449749). In kind it is functional.

A further data set concerns the target T4, Protein RecA (Mycobacterium tuberculosis, UniProt P9WHJ3).
T4 sequence (P9WHJ3 whole entry): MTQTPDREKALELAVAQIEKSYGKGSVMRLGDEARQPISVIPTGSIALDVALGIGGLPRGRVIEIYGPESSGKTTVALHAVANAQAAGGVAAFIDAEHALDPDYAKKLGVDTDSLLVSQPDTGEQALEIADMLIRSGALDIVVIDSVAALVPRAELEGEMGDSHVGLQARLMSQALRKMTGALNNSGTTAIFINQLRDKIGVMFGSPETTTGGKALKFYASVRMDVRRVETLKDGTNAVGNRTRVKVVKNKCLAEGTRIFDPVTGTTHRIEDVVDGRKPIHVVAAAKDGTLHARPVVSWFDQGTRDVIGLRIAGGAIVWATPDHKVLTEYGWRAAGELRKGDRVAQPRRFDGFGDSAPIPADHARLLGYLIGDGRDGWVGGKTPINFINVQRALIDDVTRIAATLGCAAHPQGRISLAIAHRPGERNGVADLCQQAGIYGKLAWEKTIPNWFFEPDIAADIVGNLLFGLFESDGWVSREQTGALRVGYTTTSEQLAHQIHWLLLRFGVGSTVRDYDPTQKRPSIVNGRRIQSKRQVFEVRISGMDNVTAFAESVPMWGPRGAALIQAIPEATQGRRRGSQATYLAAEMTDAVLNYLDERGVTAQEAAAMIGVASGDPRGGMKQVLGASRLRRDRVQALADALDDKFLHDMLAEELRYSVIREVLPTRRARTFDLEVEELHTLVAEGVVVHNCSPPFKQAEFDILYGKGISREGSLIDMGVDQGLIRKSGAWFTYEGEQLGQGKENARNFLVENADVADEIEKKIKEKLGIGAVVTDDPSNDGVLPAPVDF
As to the kind of experiment: Fluorescence Cell-Free Homogeneous Dose Retest to Identify Inhibitors of RecA-Intein Splicing Activity. [Related pubchem assays (depositor defined):AID2097, AID2223, AID489010, AID492950]. Format: functional.

A short description of data set [7]: inhibitors of HIV Env-driven cell fusion, dose response, cherry-pick (AID 652057). In kind it is functional, cell-based.
Data set [8] is described as follows: ZM109 Env clade C HIV-1 fusion inhibitors, dose response, HeLa effector, CEM target cells, luciferase, cherry-pick (AID 652058). Format: functional, cell-based.
Data set [9] can be described thus: inhibitors of clade B AD8 Env fusion, dose response, cell-based, cherry-pick (AID 652062).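 Note: luciferase signal from cell-cell fusion driven by HIV-1 clade B AD8 Env; potency is for inhibitors of fusion seen as a drop in luminescence.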 In kind it is functional.

Cytochrome P450 3A4, sequence (P08684 whole entry): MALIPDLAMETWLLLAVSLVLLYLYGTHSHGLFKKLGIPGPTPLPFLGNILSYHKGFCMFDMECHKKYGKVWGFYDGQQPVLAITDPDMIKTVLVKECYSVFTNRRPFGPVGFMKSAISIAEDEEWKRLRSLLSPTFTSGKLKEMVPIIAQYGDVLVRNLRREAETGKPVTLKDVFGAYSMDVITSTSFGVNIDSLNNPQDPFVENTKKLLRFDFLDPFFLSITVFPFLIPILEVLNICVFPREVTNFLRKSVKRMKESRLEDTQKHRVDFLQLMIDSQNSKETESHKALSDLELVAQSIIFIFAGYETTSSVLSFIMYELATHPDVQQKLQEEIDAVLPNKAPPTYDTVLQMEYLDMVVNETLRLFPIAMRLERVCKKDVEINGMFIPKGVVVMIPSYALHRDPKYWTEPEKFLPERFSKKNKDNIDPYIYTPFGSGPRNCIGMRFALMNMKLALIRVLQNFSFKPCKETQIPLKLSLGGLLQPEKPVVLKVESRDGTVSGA

One may read the GI50 as the concentration giving 50% growth inhibition. As for `O=NN(CCF)C(=O)NC1CCSCC1`, the GI50 with P388/ADR, in the data set on SN12K1 and with P388 was > 100 µM (inactive) each time.

A word on the AC50: it is the concentration giving half of the maximal activity seen. For `Cc1ccc(C2CC2c2nnc(S)n2-c2ccc(Cl)cc2)cc1` (stereo unspecified), the AC50 in [1] was 37.2 µM (active).

For the compound `C[C@@H](COc1ccc(/C=C\c2ccccc2)cc1)[N+](C)(C)C`, the AC50 result was “inconclusive” at Cytochrome P450 2C19, 3.16 µM (inconclusive) at Cytochrome P450 2D6, 10 µM (inconclusive) at Cytochrome P450 3A4 and “inconclusive” at Cytochrome P450 2C9.

`COCCNC(=O)c1cc(-c2cccc(OC)c2)on1`: the AC50 at Cytochrome P450 2C19 (read-out: AC50) is 28.2 µM (inconclusive); on Cytochrome P450 2C9, “inconclusive”.

As a reminder, the IC50 is the midpoint of a concentration-inhibition curve. In the case of `CCOc1cc(C#N)c(NC(=O)c2cccnc2)cc1OCC`, the IC50 in [2] was > 80 µM (inactive). In addition, the AC50 entry on Cytochrome P450 2C9 is recorded as “inconclusive”.

With `COc1ccc(C2=NOC(C(=O)NCc3ccco3)C2)cc1OC` (stereo unspecified), the AC50 result on Cytochrome P450 2C19 was “inconclusive”; at Cytochrome P450 1A2, 39.8 µM (inconclusive); on Cytochrome P450 2C9, “inconclusive”.

As for `O=C(NNC(=S)Nc1ccccc1)c1cc(Br)ccc1Cl`, in data set [3], the IC50 is 12.6 µM (active).

On to `CCc1ccccc1NC(=O)c1nnn(CC(=O)Nc2ccccc2C)c1N`, for which the AC50 was 25.1 µM (inconclusive) on Cytochrome P450 3A4 and “inconclusive” at Cytochrome P450 2C9.

For the compound `O=C(O)/C(=C\c1ccccc1OC(F)F)Sc1nnc(-c2ccc(F)cc2)o1`, the IC50 in [3] is 19.1 µM (active).

As to `Cc1ccc2c(c1)N(CCC(=O)N1CCC3(CC1)OCCO3)C(=O)C(C)O2` (stereo unspecified), the AC50 was 0.00631 µM (inconclusive) at Cytochrome P450 1A2 and “inconclusive” at Cytochrome P450 2C9.

A word on the EC50: it is the concentration at which the effect is half-maximal. Regarding `Cc1ccc(Cn2ncc(Cl)c(Cl)c2=O)cc1`, the EC50 in data set [4] was 10.5 µM (active); in data set [5] it was 7.68 µM (active); at Protein RecA, 7.65 µM (active). In addition, the results for the AC50 in data set [6] and in data set [1] were 14.3 µM (active) and 8.4 µM (active), respectively.

On to `COc1nc(O)c(N)c(NC2OC(CO)C(O)C(O)C2O)n1` (stereo unspecified), for which the GI50 in the data set on P388/ADR was 38.5 µM (inactive); in the data set with SN12K1 it was > 100 µM (inactive); with P388, 13.3 µM (inactive).

Consider `CCCCSCC(NC(=O)/C=C/c1c(C)[nH]c(=O)[nH]c1=O)C(=O)OC` (stereo unspecified), for which the GI50 is 141 µM (inactive) in the data set with P388/ADR, 17.6 µM (inactive) in the data set on SN12K1 and 55.2 µM (inactive) in the data set on P388.

For `COc1cccc2c1C(=O)c1c(O)c3c(c(O)c1C2=O)C[C@@](O)(C(=O)CO)C[C@@H]3OC1CC(N)CC(C)O1` (stereo partly specified), the GI50 with P388/ADR is 0.367 µM (active); with SN12K1, 0.02 µM (active); with P388 it was 0.0349 µM (active).

For the compound `CC1(C)CC23C4COC(=O)C2CCC1C3CC4=O` (stereo unspecified), the figures for the GI50 in the data set with P388/ADR, in the data set on SN12K1 and in the data set on P388 were 1.5 µM (inactive), 14.4 µM (inactive) and 2.9 µM (inactive), respectively.

`COc1cc(/C=C/C(=O)Oc2ccc(NC(C)=O)cc2)ccc1C(=O)OCc1ccccc1`: the figures for the GI50 in the data set with P388/ADR, in the data set with SN12K1 and in the data set with P388 were 0.69 µM (active), 36.5 µM (inactive) and 2.28 µM (inactive), respectively.

As to `O=Cc1c(Br)[nH]c2ccccc12`, the figures for the GI50 with P388/ADR, in the data set with SN12K1 and in the data set on P388 were 68.9 µM (inactive), > 100 µM (inactive) and > 55.5 µM (inactive), respectively.

In the case of `O=C(C[C@H]1C[C@@H]2c3cc(NS(=O)(=O)c4ccc(F)cc4)ccc3O[C@@H]2[C@H](CO)O1)NCCc1ccccc1`, the AC50 was 0.666 µM (active) in [7], 1.2 µM (active) in data set [8] and 8.44 µM (active) in data set [9].

`COc1ccc(NC(=O)Nc2ccc3c(c2)CC(=O)N([C@H](C)CO)C[C@H](C)[C@H](CN(C)S(=O)(=O)c2ccccc2)O3)cc1`: the figures for the AC50 in data set [7], in [8] and in [9] were < 0.26 µM (active), < 0.26 µM (active) and 0.981 µM (active), respectively.

As for `C[C@H]1CCCCO[C@H](CN(C)Cc2ccc3c(c2)OCO3)[C@@H](C)CN([C@@H](C)CO)C(=O)c2cc(NC(=O)Nc3ccc(C(F)(F)F)cc3)ccc2O1`, the AC50 in data set [1] was 12.1 µM (active).
